# Test results: article PMC5823858, “Endogenous insensitivity to the Orco agonist VUAA1 reveals novel olfactory receptor complex properties in the specialist fly Mayetiola destructor” (Scientific Reports, 2018)
# Experiments:
# Assay in all cases: Fluo-4AM calcium fluorescence, plate reader
# MdesOR115 + DmelOrco = system: T1, MdesOR115 + DmelOrco; format: cell-based, Mayetiola destructor; conditions: agonist of OR; heterospecific Orco co-expressed
# T1 construct: gene OR115; heterospecific complex: M. destructor OR115 (V5 tag) with Drosophila melanogaster Orco (c-myc tag), TREx/HEK293; with Odorant receptor coreceptor (Drosophila melanogaster)
# MdesOR115 + AsegOrco = system: T2, MdesOR115 + AsegOrco; format: cell-based, Mayetiola destructor; conditions: agonist of OR; heterospecific Orco co-expressed
# T2 construct: gene OR115; heterospecific complex: M. destructor OR115 (V5 tag) with Agrotis segetum Orco (c-myc tag), TREx/HEK293; with Odorant receptor coreceptor (Agrotis segetum)
# MdesOR115 + MdesOrco [1] = system: T3, MdesOR115 + MdesOrco; format: cell-based, Mayetiola destructor; conditions: agonist of OR; OR and Orco co-expressed
# T3 construct: gene OR115; stoichiometry unknown; with Odorant receptor coreceptor
# MdesOR115 + MdesOrco [2] = system: T3, MdesOR115 + MdesOrco; format: cell-based, Mayetiola destructor; conditions: agonist of OR; OR and mutant Orco co-expressed
# From the text: Fluo-4AM calcium fluorescence, plate reader on MdesOR115 + MdesOrco | when co-expressed with either WT MdesOrco or MdesOrco^(H81F, N133L, A350S)
# AsegOR7 + MdesOrco [3] = system: T4, AsegOR7 + MdesOrco; format: cell-based, Agrotis segetum; conditions: agonist of OR; heterospecific Orco co-expressed
# T4 construct: gene OR7; heterospecific complex: A. segetum OR7 (V5 tag) with Mayetiola destructor Orco (c-myc tag), TREx/HEK293; with Odorant receptor coreceptor (Mayetiola destructor)
# AsegOR7 + DmelOrco = system: T5, AsegOR7 + DmelOrco; format: cell-based, Agrotis segetum; conditions: agonist of OR; heterospecific Orco co-expressed
# T5 construct: gene OR7; heterospecific complex: A. segetum OR7 (V5 tag) with Drosophila melanogaster Orco (c-myc tag), TREx/HEK293; with Odorant receptor coreceptor (Drosophila melanogaster)
# From the text: Fluo-4AM calcium fluorescence, plate reader on AsegOR7 + DmelOrco | they responded well to their respective OR-specific ligand
# AsegOR7 + MdesOrco [4] = system: T4, AsegOR7 + MdesOrco; format: cell-based, Agrotis segetum; conditions: agonist of OR; heterospecific mutant Orco co-expressed
# From the text: Fluo-4AM calcium fluorescence, plate reader on AsegOR7 + MdesOrco | when co-expressed with either version of MdesOrco
# AsegOR7 + AsegOrco [5] = system: T6, AsegOR7 + AsegOrco; format: cell-based, Agrotis segetum; conditions: agonist of OR; OR and mutant Orco co-expressed
# T6 construct: gene OR7; stoichiometry unknown; with Odorant receptor coreceptor
# AsegOR7 + AsegOrco [6] = system: T6, AsegOR7 + AsegOrco; format: cell-based, Agrotis segetum; conditions: agonist of OR; OR and Orco co-expressed
# From the text: Fluo-4AM calcium fluorescence, plate reader on AsegOR7 + AsegOrco | when AsegOR7 was co-expressed with WT AsegOrco the cells responded dose dependently
# MdesOrco [7] = target: T7, MdesOrco (Mayetiola destructor, UniProt A0A1D8GZG0, A350S/H81F/N133L); format: cell-based
# T7 construct: homomeric channel
# T7 sequence (A0A1D8GZG0 1-466 H81F/N133L/A350S): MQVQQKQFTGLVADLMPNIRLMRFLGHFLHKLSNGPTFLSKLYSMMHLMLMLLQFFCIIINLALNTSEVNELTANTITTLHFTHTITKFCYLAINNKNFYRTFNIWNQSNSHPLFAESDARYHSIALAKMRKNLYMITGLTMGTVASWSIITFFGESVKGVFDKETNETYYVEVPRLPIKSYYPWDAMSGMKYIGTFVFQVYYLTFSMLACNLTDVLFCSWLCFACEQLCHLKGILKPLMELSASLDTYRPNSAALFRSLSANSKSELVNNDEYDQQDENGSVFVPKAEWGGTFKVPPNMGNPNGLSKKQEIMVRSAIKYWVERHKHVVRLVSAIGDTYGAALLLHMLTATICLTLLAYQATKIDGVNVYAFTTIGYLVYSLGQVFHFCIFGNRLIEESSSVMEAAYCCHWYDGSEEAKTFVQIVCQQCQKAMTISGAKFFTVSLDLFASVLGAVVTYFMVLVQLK
# From the text: Fluo-4AM calcium fluorescence, plate reader on MdesOrco | MdesOrco^(H81F, N133L, A350S) responded similarly to VUAA1 in HEK293 cells
# MdesOrco [8] = target: T8, MdesOrco (Mayetiola destructor, UniProt A0A1D8GZG0, A350S/C230Q/C408S/H81F/I150T/N133L/T205L); format: cell-based
# T8 construct: homomeric channel
# T8 sequence (A0A1D8GZG0 1-466 H81F/N133L/I150T/T205L/C230Q/A350S/C408S): T7 sequence (A0A1D8GZG0 1-466 H81F/N133L/A350S)
# From the text: Fluo-4AM calcium fluorescence, plate reader on MdesOrco | contained the seven point mutations responded well to VUAA1
# AsegOrco = target: T9, AsegOrco (Agrotis segetum, UniProt U5KJY5); format: cell-based
# T9 construct: homomeric channel
# T9 sequence (U5KJY5 2-473 limits assumed): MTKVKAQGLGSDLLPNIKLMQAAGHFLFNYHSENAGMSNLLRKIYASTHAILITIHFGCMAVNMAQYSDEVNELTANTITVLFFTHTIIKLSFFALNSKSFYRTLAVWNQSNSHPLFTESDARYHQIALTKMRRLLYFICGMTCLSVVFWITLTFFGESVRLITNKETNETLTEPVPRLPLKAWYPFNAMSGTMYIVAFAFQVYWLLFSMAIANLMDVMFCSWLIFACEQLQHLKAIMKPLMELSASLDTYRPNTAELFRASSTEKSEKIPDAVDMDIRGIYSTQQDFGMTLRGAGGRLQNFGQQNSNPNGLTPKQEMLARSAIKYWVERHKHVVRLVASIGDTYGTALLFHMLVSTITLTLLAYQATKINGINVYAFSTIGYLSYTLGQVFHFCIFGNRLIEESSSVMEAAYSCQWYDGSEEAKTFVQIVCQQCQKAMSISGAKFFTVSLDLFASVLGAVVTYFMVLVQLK
# From the text: Fluo-4AM calcium fluorescence, plate reader on AsegOrco | WT AsegOrco and DmelOrco responded dose-dependently to VUAA1
# DmelOrco = target: T10, DmelOrco (Drosophila melanogaster, UniProt Q9VNB5); format: cell-based
# T10 construct: gene Orco; homomeric channel
# T10 sequence (Q9VNB5 1-486): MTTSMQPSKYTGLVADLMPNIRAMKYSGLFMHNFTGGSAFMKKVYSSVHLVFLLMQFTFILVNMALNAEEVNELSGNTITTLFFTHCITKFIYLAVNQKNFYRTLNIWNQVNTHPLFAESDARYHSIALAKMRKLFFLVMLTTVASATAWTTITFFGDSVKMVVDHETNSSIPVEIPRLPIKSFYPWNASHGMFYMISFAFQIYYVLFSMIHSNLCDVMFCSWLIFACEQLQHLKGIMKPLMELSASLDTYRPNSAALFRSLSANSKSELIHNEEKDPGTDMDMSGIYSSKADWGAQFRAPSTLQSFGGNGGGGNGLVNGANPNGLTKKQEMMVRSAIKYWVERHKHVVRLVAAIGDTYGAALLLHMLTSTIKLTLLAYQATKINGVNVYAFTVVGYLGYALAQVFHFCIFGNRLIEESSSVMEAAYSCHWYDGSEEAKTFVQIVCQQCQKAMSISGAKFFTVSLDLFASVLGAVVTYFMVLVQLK
# From the text: Fluo-4AM calcium fluorescence, plate reader on DmelOrco | WT AsegOrco and DmelOrco responded dose-dependently to VUAA1
# DmelOR56a + DmelOrco = target: T11, DmelOR56a + DmelOrco (Drosophila melanogaster, UniProt Q9V8Y7); format: cell-based; conditions: agonist of OR; OR and Orco co-expressed
# T11 construct: gene Or56a; stoichiometry unknown; with Odorant receptor coreceptor
# T11 sequence (Q9V8Y7 1-419): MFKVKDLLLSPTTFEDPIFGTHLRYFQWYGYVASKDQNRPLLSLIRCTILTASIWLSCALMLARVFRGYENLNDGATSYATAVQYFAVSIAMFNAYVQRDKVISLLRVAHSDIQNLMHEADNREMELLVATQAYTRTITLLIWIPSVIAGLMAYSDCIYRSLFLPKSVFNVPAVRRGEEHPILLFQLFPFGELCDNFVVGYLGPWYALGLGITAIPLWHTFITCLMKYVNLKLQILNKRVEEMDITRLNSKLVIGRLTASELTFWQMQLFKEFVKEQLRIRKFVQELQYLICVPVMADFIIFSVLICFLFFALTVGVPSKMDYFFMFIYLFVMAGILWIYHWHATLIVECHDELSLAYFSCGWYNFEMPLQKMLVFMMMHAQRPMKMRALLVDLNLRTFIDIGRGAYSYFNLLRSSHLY
# T11 sequence (Q9VNB5 1-486 partner): T10 sequence (Q9VNB5 1-486)
# From the text: Fluo-4AM calcium fluorescence, plate reader on DmelOR56a + DmelOrco | when DmelOR56a was co-expressed with WT DmelOrco the cells responded dose-dependently to geosmin
# DmelOR56a + MdesOrco = target: T12, DmelOR56a + MdesOrco (Drosophila melanogaster, UniProt Q9V8Y7); format: cell-based; conditions: agonist of OR; heterospecific Orco co-expressed
# T12 construct: gene Or56a; heterospecific complex: D. melanogaster OR56a (V5 tag) with Mayetiola destructor Orco (c-myc tag), TREx/HEK293; with Odorant receptor coreceptor (Mayetiola destructor)
# T12 sequence (Q9V8Y7 1-419): T11 sequence (Q9V8Y7 1-419)
# T12 sequence (A0A1D8GZG0 1-466 partner): T7 sequence (A0A1D8GZG0 1-466 H81F/N133L/A350S)
# DmelOR56a + AsegOrco = target: T13, DmelOR56a + AsegOrco (Drosophila melanogaster, UniProt Q9V8Y7); format: cell-based; conditions: agonist of OR; heterospecific Orco co-expressed
# T13 construct: gene Or56a; heterospecific complex: D. melanogaster OR56a (V5 tag) with Agrotis segetum Orco (c-myc tag), TREx/HEK293; with Odorant receptor coreceptor (Agrotis segetum)
# T13 sequence (Q9V8Y7 1-419): T11 sequence (Q9V8Y7 1-419)
# T13 sequence (U5KJY5 2-473 partner limits assumed): T9 sequence (U5KJY5 2-473 limits assumed)
# From the text: Fluo-4AM calcium fluorescence, plate reader on DmelOR56a + AsegOrco | they responded well to their respective OR-specific ligand
structure (smiles),measurement,setting,value
"CC/C=C/C=C/CCCCC[C@H](C)OC(C)=O [(2S,8E,10E)-8,10-tridecadien-2-yl acetate]",EC50,MdesOR115 + DmelOrco,6.2 µM
same,EC50,MdesOR115 + AsegOrco,3.5 µM
same,EC50,MdesOR115 + MdesOrco [1],2.6 µM
same,EC50,MdesOR115 + MdesOrco [2],3.1 µM
CCCC/C=C\CCCCOC(C)=O [(Z)-5-decenyl acetate],EC50,AsegOR7 + MdesOrco [3],2.5 µM
same,EC50,AsegOR7 + DmelOrco,1.2 µM
same,EC50,AsegOR7 + MdesOrco [4],2.8 µM
same,EC50,AsegOR7 + AsegOrco [5],2.2 µM
same,EC50,AsegOR7 + AsegOrco [6],2.3 µM
"CCc1ccc(NC(=O)CSc2nnc(-c3cccnc3)n2CC)cc1 [VUAA1, N-(4-ethylphenyl)-2-((4-ethyl-5-(3-pyridinyl)-4H-1,2,4-triazol-3-yl)thio)acetamide]",EC50,MdesOrco [7],25 µM
same,EC50,MdesOrco [8],26.3 µM
same,EC50,AsegOrco,27.3 µM
same,EC50,DmelOrco,15.3 µM
C[C@H]1CCC[C@@]2(C)CCCC[C@]12O [geosmin],EC50,DmelOR56a + DmelOrco,0.0191 µM
same,EC50,DmelOR56a + MdesOrco,0.0935 µM
same,EC50,DmelOR56a + AsegOrco,0.0372 µM
